According to ChEMBL document CHEMBL1201862, “PubChem BioAssay data set” (2004):
Active and inactive are the calls of the source.

What was measured:
[1] = blockade of melanocortin 4 receptor signaling – cell-based, plate reader, cherry pick, counter-screen for LGR2 antagonist project, dose response (AID 743444); type: functional;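 further: transfected HEK 293 cells stimulated with alpha-MSH peptide; potency of inhibitors of the alpha-MSH evoked signal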
[2] = toxicity toward HepG2 liver cells – cell-based, plate reader, cherry-pick, antagonist series, cytotoxicity control, dose response (AID 743416); type: functional
[3] = blockers of bursicon-stimulated LGR2 cAMP reporter – cell-based, HEK293, CRE-luciferase reporter, cherry pick, set 2, dose response (AID 743343); type: functional;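 further: transfected cells were stimulated with diluted bursicon conditioned medium after compound addition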
[4] = molecular target: T1, Corticotropin-releasing factor receptor 2/Corticotropin-releasing factor-binding protein (Homo sapiens, UniProt P24387+Q13324); assay: Dose Response confirmation of uHTS hits for small molecule antagonists of the CRF-binding protein and CRF-R2 receptor complex.; type: functional; conditions: read-out: IC50_Mean
T1 sequence (Q13324 whole entry): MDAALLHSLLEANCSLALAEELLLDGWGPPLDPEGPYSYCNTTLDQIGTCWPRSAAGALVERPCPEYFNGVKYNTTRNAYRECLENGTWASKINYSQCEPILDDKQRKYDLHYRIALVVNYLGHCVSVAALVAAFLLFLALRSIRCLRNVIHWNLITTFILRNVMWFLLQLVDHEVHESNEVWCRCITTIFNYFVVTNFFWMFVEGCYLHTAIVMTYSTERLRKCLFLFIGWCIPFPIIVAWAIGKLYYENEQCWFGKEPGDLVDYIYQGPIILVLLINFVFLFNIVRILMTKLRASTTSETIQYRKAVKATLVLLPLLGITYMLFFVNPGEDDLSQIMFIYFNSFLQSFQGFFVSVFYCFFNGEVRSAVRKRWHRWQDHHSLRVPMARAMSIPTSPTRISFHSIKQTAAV
T1 sequence (P24387 whole entry): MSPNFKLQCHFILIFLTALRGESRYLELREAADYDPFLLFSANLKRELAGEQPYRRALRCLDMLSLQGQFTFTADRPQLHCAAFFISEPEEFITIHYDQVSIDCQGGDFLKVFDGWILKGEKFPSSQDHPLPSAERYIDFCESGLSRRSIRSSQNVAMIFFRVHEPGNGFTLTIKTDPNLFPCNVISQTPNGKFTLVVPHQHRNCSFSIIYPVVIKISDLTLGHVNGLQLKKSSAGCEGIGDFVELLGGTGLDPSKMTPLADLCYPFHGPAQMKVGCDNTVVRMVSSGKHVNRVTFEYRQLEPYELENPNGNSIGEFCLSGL

[5] = molecular target: T1, Corticotropin-releasing factor receptor 2/Corticotropin-releasing factor-binding protein; assay: activators of CRF receptor 2 with binding protein – uHTS hits, confirmation (AID 602473); type: functional; conditions: read-out: EC50_Mean
[6] = blockers of CRF-binding protein–CRF-R2 complex – cell-based, uHTS hits, 384-well, dose response (AID 651639); type: functional, Homo sapiens; conditions: read-out: IC50_Mean
[7] = cells; type: functional, cell-based; conditions: HEK-CNG
[8] = system: INS1; assay: INS-1E survival protection against cytokine death – cell-based, luminescence, retest, dose response (AID 449756); type: functional; conditions: Rattus norvegicus;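 further: cell death triggered by IL-1 beta plus TNF-alpha plus IFN-gamma mixture; protective hits raise ATP signal compared with cytokine alone wells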
[9] = molecular target: Photoreceptor-specific nuclear receptor (Homo sapiens, UniProt Q9Y5X4); type: functional, cell-based;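 further: CHO-S cells with Gal4-NCOR and VP16-NR2E3 two-hybrid luciferase reporter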
Chain of Photoreceptor-specific nuclear receptor (Q9Y5X4 whole entry, the tested form may be a part): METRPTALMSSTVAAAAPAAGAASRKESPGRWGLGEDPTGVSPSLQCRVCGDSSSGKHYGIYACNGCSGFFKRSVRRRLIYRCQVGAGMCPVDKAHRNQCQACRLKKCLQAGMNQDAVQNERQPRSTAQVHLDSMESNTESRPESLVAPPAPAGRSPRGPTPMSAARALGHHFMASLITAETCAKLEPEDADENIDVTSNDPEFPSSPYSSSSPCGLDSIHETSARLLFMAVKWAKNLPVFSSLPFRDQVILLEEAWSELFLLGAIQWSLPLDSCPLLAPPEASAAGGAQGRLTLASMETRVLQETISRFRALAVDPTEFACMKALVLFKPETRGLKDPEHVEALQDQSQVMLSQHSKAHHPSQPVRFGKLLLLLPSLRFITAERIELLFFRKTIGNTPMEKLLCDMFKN

[10] = molecular target: T2, Galanin receptor type 3 (Homo sapiens, UniProt O60755); assay: Fluorescence-based cell-based primary high throughput dose response assay to identify antagonists of the Galanin Receptor 3 (GalR3).; type: functional
T2 sequence (O60755 whole entry): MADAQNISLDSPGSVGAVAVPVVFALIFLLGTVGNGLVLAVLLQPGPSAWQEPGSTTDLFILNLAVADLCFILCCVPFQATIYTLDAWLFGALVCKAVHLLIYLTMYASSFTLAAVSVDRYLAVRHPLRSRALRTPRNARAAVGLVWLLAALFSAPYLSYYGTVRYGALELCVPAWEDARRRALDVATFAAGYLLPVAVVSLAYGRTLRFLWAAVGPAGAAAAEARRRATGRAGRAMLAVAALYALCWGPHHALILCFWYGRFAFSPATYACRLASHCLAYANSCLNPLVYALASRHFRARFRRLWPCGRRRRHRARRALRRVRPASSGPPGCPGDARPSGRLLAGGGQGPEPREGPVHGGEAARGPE

[11] = molecular target: T3, Carboxy-terminal domain RNA polymerase II polypeptide A small phosphatase 1 (Homo sapiens, UniProt Q9GZU7); assay: CTDSP1 inhibitors, concentration-response, biochemical, absorbance readout, ultra-high-throughput screen actives (AID 540297); type: functional
T3 sequence (Q9GZU7 whole entry): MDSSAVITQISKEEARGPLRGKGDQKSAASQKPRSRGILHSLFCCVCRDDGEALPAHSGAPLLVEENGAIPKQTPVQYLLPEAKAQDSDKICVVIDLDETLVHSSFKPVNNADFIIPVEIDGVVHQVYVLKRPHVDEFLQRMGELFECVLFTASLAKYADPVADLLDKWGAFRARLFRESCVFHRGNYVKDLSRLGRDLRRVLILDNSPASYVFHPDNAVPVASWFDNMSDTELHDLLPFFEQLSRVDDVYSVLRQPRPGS

[12] = A549 cell cytotoxicity, dose response, cytotoxicity control, plate reader, cherry-pick, antagonist series (AID 743412); type: functional, cell-based
[13] = system: A-375; assay: MITF: Counter assay: A375 proliferation Measured in Cell-Based System Using Plate Reader - 2084-03_Inhibitor_Dose_DryPowder_Activity. [Related pubchem assays (depositor defined):AID488944]; type: functional; conditions: Homo sapiens
[14] = molecular target: T4, Microphthalmia-associated transcription factor (Homo sapiens, UniProt O75030); assay: reducers of TRPM1 reporter luminescence, concentration series – cell-based, SK-MEL-5, cherry-picked, set 3, MITF inhibitor project, dose response (AID 493073); type: functional;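 further: SK-MEL-5 melanoma cells with luciferase driven by the MITF target TRPM1 promoter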
T4 sequence (O75030 whole entry): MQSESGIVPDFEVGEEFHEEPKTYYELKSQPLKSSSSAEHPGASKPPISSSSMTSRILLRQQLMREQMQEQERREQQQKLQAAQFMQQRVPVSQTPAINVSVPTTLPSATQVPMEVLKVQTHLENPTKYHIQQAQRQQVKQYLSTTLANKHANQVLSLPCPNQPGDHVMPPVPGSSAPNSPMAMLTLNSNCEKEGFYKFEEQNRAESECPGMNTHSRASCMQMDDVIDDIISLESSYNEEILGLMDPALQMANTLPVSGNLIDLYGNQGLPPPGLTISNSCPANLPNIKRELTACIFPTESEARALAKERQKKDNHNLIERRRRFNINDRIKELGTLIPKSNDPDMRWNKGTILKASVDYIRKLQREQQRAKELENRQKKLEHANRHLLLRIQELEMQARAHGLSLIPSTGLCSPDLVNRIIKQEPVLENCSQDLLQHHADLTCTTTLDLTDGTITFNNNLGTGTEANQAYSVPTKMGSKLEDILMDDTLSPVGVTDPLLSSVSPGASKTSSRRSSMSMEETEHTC

[15] = molecular target: T5, Heat shock factor protein 1 (Mus musculus, UniProt P38532); assay: decrease of HSF1-responsive luciferase luminescence – cell-based, NIH3T3, dose retest, confirmation (AID 2382); type: functional;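 further: NIH3T3 fibroblasts with HSF1-driven luciferase reporter stressed by proteasome inhibitor MG132; luminescence from HSF1-driven luciferase expression after 8 hours of MG132 stress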
T5 sequence (P38532 whole entry): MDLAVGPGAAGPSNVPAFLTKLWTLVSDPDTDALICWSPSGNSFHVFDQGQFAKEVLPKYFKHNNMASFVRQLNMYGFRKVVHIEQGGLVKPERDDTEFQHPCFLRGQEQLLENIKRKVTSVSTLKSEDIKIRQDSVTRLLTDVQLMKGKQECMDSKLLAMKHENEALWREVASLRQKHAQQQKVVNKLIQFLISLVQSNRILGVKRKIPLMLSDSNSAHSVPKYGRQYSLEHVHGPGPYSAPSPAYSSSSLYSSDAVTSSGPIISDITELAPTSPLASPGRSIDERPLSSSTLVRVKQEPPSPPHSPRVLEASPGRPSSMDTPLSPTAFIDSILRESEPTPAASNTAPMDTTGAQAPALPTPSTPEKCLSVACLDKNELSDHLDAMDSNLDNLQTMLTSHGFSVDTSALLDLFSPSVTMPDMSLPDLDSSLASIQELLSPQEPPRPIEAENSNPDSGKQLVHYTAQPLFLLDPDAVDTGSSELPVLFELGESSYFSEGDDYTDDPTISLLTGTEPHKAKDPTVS

[16] = system: HEK293; assay: EBV LMP1 TES2 canonical NF-kB signalling blockers – cell-based, HEK293, luciferase, cherry-pick, dose response (AID 588343); type: functional; conditions: Homo sapiens
[17] = system: Vero; assay: cells; type: functional; conditions: Chlorocebus sabaeus

**Q.** What does the source list for `O=C(O)c1cccc(-c2noc(-c3cccc(Cl)c3)n2)c1`?
**A.** AC50 [1]: 7.56 µM (active); AC50 [2]: > 52 µM (inactive); AC50 [3]: 5.67 µM (active)

**Q.** With `COc1ccc(S(=O)(=O)N2CCCCCC2)cc1C(=O)N(C)Cc1ccc(C(C)(C)C)cc1` as the compound, how does the IC50 [4] read?
**A.** 14.6 µM (active)

**Q.** And the EC50 [5]?
**A.** > 53 µM (inactive)

**Q.** And the IC50 [6]?
**A.** 13.5 µM (active)

**Q.** Which EC50 [7] does the source give for `CCCOc1ccc(CSc2nc3ccccc3[nH]2)cc1` here?
**A.** > 29.9 µM (inactive)

**Q.** And the AC50 [8]?
**A.** 3.73 µM (active)

**Q.** What about the IC50 [9] of the same compound?
**A.** 4.25 µM (active)

**Q.** What about the IC50 [10] of the same compound?
**A.** 2.27 µM (active)

**Q.** With `C=CCC1(CC=C)CCCN1C(=O)c1cc(COc2cncc(Cl)c2)on1` as the compound, how does the EC50 [7] read?
**A.** > 29.9 µM (inactive)

**Q.** And the IC50 [10]?
**A.** > 1.11 µM (active)

**Q.** For `COCC1CCCN(C(=O)c2cc(COc3ccc4ncccc4c3)on2)C1` (stereo not given), which EC50 [7] is on record?
**A.** > 29.9 µM (inactive)

**Q.** And the IC50 [10]?
**A.** 1.3 µM (active)

**Q.** For `O=C(COc1cc(Cl)ccc1Cl)N1CCNC1=O`, which IC50 [4] is on record?
**A.** 27.4 µM (active)

**Q.** And the EC50 [5]?
**A.** > 53 µM (inactive)

**Q.** What about the IC50 [6] of the same compound?
**A.** 8.63 µM (active)

**Q.** Which IC50 [11] does the source give for `COC(=O)c1cc(NC(=O)Cc2cccs2)cc(C(=O)OC)c1` here?
**A.** 3.84 µM (active)

**Q.** Which AC50 [12] does the source give for `COC(=O)c1ccc(Nc2cc(C)nc3ccc(C)cc23)cc1` here?
**A.** 4.31 µM (active)

**Q.** What about the AC50 [13] of the same compound?
**A.** 36.8 µM (active)

**Q.** And the AC50 [14]?
**A.** 6.85 µM (active)

**Q.** What about the AC50 [2] of the same compound?
**A.** 13.2 µM (active)

**Q.** Which EC50 [15] does the source give for `CC(C)(C)c1ccc(Cn2c(=O)cnc3ccccc32)cc1` here?
**A.** 2.27 µM (active)

**Q.** And the AC50 [16]?
**A.** 6.93 µM (active)

**Q.** And the AC50 [12]?
**A.** 12.6 µM (active)

**Q.** And the AC50 [2]?
**A.** 29.4 µM (active)

**Q.** And the AC50 [3]?
**A.** 38 µM (active)

**Q.** Which CC50 [17] does the source give for `CCc1cc(OCCCSc2nc(C)cc(O)n2)ccc1Cl` here?
**A.** 2.36 µM (active)

**Q.** And the IC50 [9]?
**A.** 3.02 µM (active)

**Q.** With `O=C(CNC(=O)c1cccc(OC(F)F)c1)OCc1cc(=O)n2cc(Br)ccc2n1` as the compound, how does the IC50 [11] read?
**A.** 7.09 µM (active)
